Key:
Type in all cases: in vivo, mouse
[1] = system: mTOR; experiment: mTOR ELISA in lung tissue homogenate of aged mice; details: aged C57BL/6 mice, 25 mg/kg p.o. each substance, 90 days
Description: The experiments were performed in old C57b1/6 mice (28-30 weeks). Table 1 discloses the groups of mice used for the experimentation. C57BL/6 mice were bred and naturally aged in a pathogen-free colony. Mice were group-housed six per cage for the treatment regimen and maintained on a 12-hr light-dark schedule with ad libitum access to food and water. All experiments were designed according to the principles of animal use for gerontological research (Miller, R. A., & Nadon, N. L. (2000). Principles of animal use for gerontological research. Journals of Gerontology. Series A, Biological Sciences and Medical Sciences, 55, B117-B123) [table] The above test substances were administered to the mice for a period of 90 days. Rapamycin was used as a positive control. After 90 days of administration experiments were performed to assess the respiratory muscle function, anatomical changes, cellular senescence and immunological changes. Activation of AMPK delays senescence. Abnormal autophagy and aging promote each other, and AMPK is an important regulator of this process. AMPK is involved in the transduction of several aging-related signaling pathways. AMPK intervenes in the development of many age-related diseases. […] These events contribute to the pathogenesis of age-related disorders.

[2] = system: old C57b1/6 mice; experiment: Tidal volume by whole-body plethysmography in aged mice; details: aged C57BL/6 mice, 25 mg/kg p.o. each substance, 90 days
Description: The experiments were performed in old C57b1/6 mice (28-30 weeks). Table 1 discloses the groups of mice used for the experimentation. C57BL/6 mice were bred and naturally aged in a pathogen-free colony. Mice were group-housed six per cage for the treatment regimen and maintained on a 12-hr light-dark schedule with ad libitum access to food and water. All experiments were designed according to the principles of animal use for gerontological research (Miller, R. A., & Nadon, N. L. (2000). Principles of animal use for gerontological research. Journals of Gerontology. Series A, Biological Sciences and Medical Sciences, 55, B117-B123) [table] The above test substances were administered to the mice for a period of 90 days. Rapamycin was used as a positive control. […] The respiratory muscle function in the study animals was assessed by estimating the Tidal Volume, Minute ventilation, Transdiaphragmatic pressure ([…]) and Respiratory rate. […] In the present study, ventilatory parameters were measured in awake mice during eupnoea (spontaneous breathing of room air) using a whole-body plethysmography system. […] Recordings were taken after 10 min of acclimatization and recorded for one hour. Recorded parameters included tidal volume and minute ventilation

[3] = system: old C57b1/6 mice; experiment: Transdiaphragmatic pressure (Pdimax) in aged mice; details: aged C57BL/6 mice, anesthetized, eupnoea, 25 mg/kg p.o. each substance, 90 days
Description: The experiments were performed in old C57b1/6 mice (28-30 weeks). Table 1 discloses the groups of mice used for the experimentation. C57BL/6 mice were bred and naturally aged in a pathogen-free colony. Mice were group-housed six per cage for the treatment regimen and maintained on a 12-hr light-dark schedule with ad libitum access to food and water. All experiments were designed according to the principles of animal use for gerontological research (Miller, R. A., & Nadon, N. L. (2000). Principles of animal use for gerontological research. Journals of Gerontology. Series A, Biological Sciences and Medical Sciences, 55, B117-B123) [table] […] The respiratory muscle function in the study animals was assessed by estimating the Tidal Volume, Minute ventilation, Transdiaphragmatic pressure ([…]) and Respiratory rate. […] Anesthetized mice were monitored continually for temperature, oxygen saturation, and heart rate. Palpebral reflex and pain response were monitored to ensure depth of anaesthesia. […] Spontaneous ventilation was maintained, the abdomen was bound, and Pdi was recorded using solid-state pressure catheters. […] The pressure data were collected using a PowerLab 8/35 data-acquisition system and analyzed using LabChart ([…]., & Mantilla, C. B. (2013). Novel method for transdiaphragmatic pressure measurements in mice. Respiratory Physiology & Neurobiology, 188, 56-59)

Q: What does the source list for `O=C(/C=C/c1ccc(O)c(O)c1)O[C@H](Cc1ccc(O)c(O)c1)C(=O)O` [Rosmarinic acid]?
A: expression of mTOR [1]: decreased; tidal volume ([2]; versus old mice control): increased; tidal volume, comparison between treatment groups ([2]; Rapamycin 8 mg/kg p.o. positive control): better than control, and Rapamycin; Transdiaphragmatic pressure (Pdimax) [3]: increase

From patent US20250090614A1, “COMPOSITIONS AND METHODS FOR IMPROVING LUNG FUNCTION” (priority 2023, published 2025)
